In brackets after ≈: the same amount, converted by molar mass. Like-named read-outs stand apart in the source and are kept apart here.
How the values were obtained:
[1] = test system: E. coli CFT073 (UPEC); experiment: MIC, standard microdilution assay, growing UPEC; type: cell-based, Escherichia coli; conditions: for MIC: Escherichia coli
Outline: (§1)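 Standard microdilution protocol, triplicate wells. For S. flexneri the growth medium is TSB. The other three strains are grown in HEPES-buffered (40 mM, pH 7.4) CA-MHB, and UPEC is also run at pH 5.5 in LPM containing 30 mM MES.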

[2] = test system: S. aureus DSM2569; experiment: MIC, standard microdilution assay, growing S. aureus; type: cell-based, Staphylococcus aureus; conditions: Staphylococcus aureus
Outline: as §1

[3] = test system: non-growing UPEC CFT073; experiment: Dose-dependent killing analysis (CFU spot-plating) of stationary-phase UPEC; type: cell-based, Escherichia coli
Protocol: To differentiate between these scenarios, we used CFU counting by agar plating to assess the bactericidal effect on non-growing bacteria. […] Conversely, if no significant reduction in CFU is observed, the regrowth delay is due to PAE without killing. […] Fluoroquinolones are known to cause PAE after treatment of growing bacterial cultures.
For survival analysis, bacteria were cultivated as described for the dose–response dilution-regrowth assay. Assays with UPEC were conducted at the CBCS screening facility using 96-well plates with a 200 μl sample volume, and compounds were dispensed using the Echo® (Labcyte) system. P. aeruginosa and S. aureus samples were treated according to the protocol used for the dilution-regrowth experiments. Treated samples were serially diluted 10-fold in PBS, and 10 μl drops were spot-plated onto rectangular LB agar plates using either a Beckman NXP robot (for UPEC) or an Integra VIAFLO96 electronic pipette (for P. aeruginosa and S. aureus). The LB agar plates were incubated overnight at 37 °C and scanned. Colonies were counted at the spots of the lowest dilution where individual colonies could be accurately distinguished. Each colony was manually marked on a separate image layer using the GNU Image Manipulation Program, and counted using NIST’s Integrated Colony Enumerator (NICE 1.4) software. The experiments were performed in three biological replicates.

[4] = E. coli in 1:4 CA-MHB (pH 7.4), 0.25 μM
[5] = E. coli in 1:4 CA-MHB (pH 7.4), 0.5 μM
[6] = E. coli in 1:4 CA-MHB (pH 7.4), 1 μM
[7] = E. coli in 1:4 CA-MHB (pH 7.4), 2.5 μM
[8] = E. coli in 1:4 CA-MHB (pH 7.4), 5 μM
[9] = E. coli in 1:4 CA-MHB (pH 7.4), 10 μM
[10] = E. coli in LPM (pH 5.5), 0.25 μM
[11] = E. coli in LPM (pH 5.5), 0.5 μM
[12] = E. coli in LPM (pH 5.5), 2.5 μM

## CCCCC(CC)CNC(=N)NC(=N)NCCCCCCNC(=N)NC(=N)NCC(CC)CCCC (stereo not shown) [Alexidine]
[1]; E. coli, pH 7.4, CA-MHB, read-out: MIC (μM) CA-MHB
  MIC: 2 µM (≈ 1.02 µg/mL)
[2]; DSM2569, S. aureus, CA-MHB pH 7.4, read-out: MIC (μM) CA-MHB
  MIC: 1 µM (≈ 0.509 µg/mL)

## CS[C@H]1SC[C@H]2C(=O)N(C)[C@@H](C(C)C)C(=O)OC[C@@H](NC(=O)c3cnc4ccccc4n3)C(=O)N[C@@H](C)C(=O)N(C)[C@@H]1C(=O)N(C)[C@@H](C(C)C)C(=O)OC[C@@H](NC(=O)c1cnc3ccccc3n1)C(=O)N[C@@H](C)C(=O)N2C [Echinomycin]
[1]; E. coli, pH 7.4, CA-MHB with 10 μg/ml efflux pump inhibitor PaβN
  MIC (μM) CA-MHB +PAβN: 40 µM (≈ 44.1 µg/mL)
[1]; pH 5.5
  MIC: 4 µM (≈ 4.41 µg/mL)
[1]; pH 7.4, read-out: MIC (μM) 1:4 CA-MHB
  MIC: 40 µM (≈ 44.1 µg/mL)
[1]; pH 7.4, read-out: MIC (μM) CA-MHB
  MIC: 20 µM (≈ 22 µg/mL)
[2]; DSM2569, pH 7.4, read-out: MIC (μM) CA-MHB
  MIC: 2 µM (≈ 2.2 µg/mL)
[3]; [4]
  Log10(CFU/ml), Replicate #1: 9.431 Log10(CFU/ml)
  Log10(CFU/ml), Replicate #2: 8.699 Log10(CFU/ml)
  Log10(CFU/ml), Replicate #3: 8.505 Log10(CFU/ml)
[3]; E. coli in 1:4 CA-MHB (pH 7.4), 0.25 μM, average killing vs before treatment (8.977)
  Δlog10(CFU/ml): 0.099 log10(CFU/ml)
[3]; [5]
  Log10(CFU/ml), Replicate #1: 9.415 Log10(CFU/ml)
  Log10(CFU/ml), Replicate #2: 9.079 Log10(CFU/ml)
  Log10(CFU/ml), Replicate #3: 8.447 Log10(CFU/ml)
[3]; E. coli in 1:4 CA-MHB (pH 7.4), 0.5 μM, average killing vs before treatment (8.977)
  Δlog10(CFU/ml): -0.003 log10(CFU/ml)
[3]; [6]
  Log10(CFU/ml), Replicate #1: 9.380 Log10(CFU/ml)
  Log10(CFU/ml), Replicate #2: 9.114 Log10(CFU/ml)
  Log10(CFU/ml), Replicate #3: 8.398 Log10(CFU/ml)
[3]; E. coli in 1:4 CA-MHB (pH 7.4), 1 μM, average killing vs before treatment (8.977)
  Δlog10(CFU/ml): 0.013 log10(CFU/ml)
[3]; [7]
  Log10(CFU/ml), Replicate #1: 9.398 Log10(CFU/ml)
  Log10(CFU/ml), Replicate #2: 8.699 Log10(CFU/ml)
  Log10(CFU/ml), Replicate #3: 8.398 Log10(CFU/ml)
[3]; E. coli in 1:4 CA-MHB (pH 7.4), 2.5 μM, average killing vs before treatment (8.977)
  Δlog10(CFU/ml): 0.146 log10(CFU/ml)
[3]; [8]
  Log10(CFU/ml), Replicate #1: 9.362 Log10(CFU/ml)
  Log10(CFU/ml), Replicate #2: 8.477 Log10(CFU/ml)
  Log10(CFU/ml), Replicate #3: 8.477 Log10(CFU/ml)
[3]; E. coli in 1:4 CA-MHB (pH 7.4), 5 μM, average killing vs before treatment (8.977)
  Δlog10(CFU/ml): 0.205 log10(CFU/ml)
[3]; [9]
  Log10(CFU/ml), Replicate #1: 8.342 Log10(CFU/ml)
  Log10(CFU/ml), Replicate #2: 8.079 Log10(CFU/ml)
  Log10(CFU/ml), Replicate #3: 8.342 Log10(CFU/ml)
[3]; E. coli in 1:4 CA-MHB (pH 7.4), 10 μM, average killing vs before treatment (8.977)
  Δlog10(CFU/ml): 0.723 log10(CFU/ml)
[3]; [10]
  Log10(CFU/ml), Replicate #1: 6.778 Log10(CFU/ml)
  Log10(CFU/ml), Replicate #2: 7.114 Log10(CFU/ml)
  Log10(CFU/ml), Replicate #3: 8.398 Log10(CFU/ml)
[3]; E. coli in LPM (pH 5.5), 0.25 μM, average killing vs before treatment (7.350)
  Δlog10(CFU/ml): -0.080 log10(CFU/ml)
[3]; [11]
  Log10(CFU/ml), Replicate #1: 6.954 Log10(CFU/ml)
  Log10(CFU/ml), Replicate #2: 6.954 Log10(CFU/ml)
  Log10(CFU/ml), Replicate #3: 8.000 Log10(CFU/ml)
[3]; E. coli in LPM (pH 5.5), 0.5 μM, average killing vs before treatment (7.350)
  Δlog10(CFU/ml): 0.048 log10(CFU/ml)
[3]; E. coli in LPM (pH 5.5), 1 μM
  Log10(CFU/ml), Replicate #1: 6.954 Log10(CFU/ml)
  Log10(CFU/ml), Replicate #2: 7.255 Log10(CFU/ml)
  Log10(CFU/ml), Replicate #3: 8.301 Log10(CFU/ml)
[3]; E. coli in LPM (pH 5.5), 1 μM, average killing vs before treatment (7.350)
  Δlog10(CFU/ml): -0.153 log10(CFU/ml)
[3]; [12]
  Log10(CFU/ml), Replicate #1: 6.954 Log10(CFU/ml)
  Log10(CFU/ml), Replicate #2: 6.845 Log10(CFU/ml)
  Log10(CFU/ml), Replicate #3: 8.230 Log10(CFU/ml)
[3]; E. coli in LPM (pH 5.5), 2.5 μM, average killing vs before treatment (7.350)
  Δlog10(CFU/ml): 0.007 log10(CFU/ml)
[3]; E. coli in LPM (pH 5.5), 5 μM
  Log10(CFU/ml), Replicate #1: 6.778 Log10(CFU/ml)
  Log10(CFU/ml), Replicate #2: 7.342 Log10(CFU/ml)
  Log10(CFU/ml), Replicate #3: 8.204 Log10(CFU/ml)
[3]; E. coli in LPM (pH 5.5), 5 μM, average killing vs before treatment (7.350)
  Δlog10(CFU/ml): -0.091 log10(CFU/ml)
[3]; E. coli in LPM (pH 5.5), 10 μM
  Log10(CFU/ml), Replicate #1: 6.279 Log10(CFU/ml)
  Log10(CFU/ml), Replicate #2: 6.362 Log10(CFU/ml)
  Log10(CFU/ml), Replicate #3: 6.602 Log10(CFU/ml)
[3]; E. coli in LPM (pH 5.5), 10 μM, average killing vs before treatment (7.350)
  Δlog10(CFU/ml): 0.936 log10(CFU/ml)
